The values that follow come from patent US6762045B2, “Membrane derived caspase-3, compositions comprising the same and methods of use therefor” (Idun Pharmaceuticals, Inc., priority 2000, dated 2004).

The target in test [1] is T1, purified membrane derived caspase-3 (Homo sapiens, UniProt P42574).
T1 construct: the heavy membrane caspase is comprised of a large 19-kDa subunit and a smaller 12-kDa subunit; endogenous in cells; host or cells: 697 human lymphoblastoid cells
T1 sequence (P42574 14-175): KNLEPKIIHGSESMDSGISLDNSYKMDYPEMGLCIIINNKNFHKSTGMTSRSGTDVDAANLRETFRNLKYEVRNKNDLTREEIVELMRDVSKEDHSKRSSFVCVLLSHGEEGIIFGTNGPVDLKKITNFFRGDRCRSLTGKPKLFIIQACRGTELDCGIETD
T1 sequence (P42574 176-277): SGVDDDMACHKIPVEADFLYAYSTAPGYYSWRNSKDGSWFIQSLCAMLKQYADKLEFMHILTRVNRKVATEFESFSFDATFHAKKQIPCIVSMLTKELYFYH
The test is described as follows: DEVD-AMC cleavage by affinity purified membrane derived caspase-3 from 697 cells. It counts as biochemical. How it is done:
(§1) For inhibition studies, 50 μl of the enzyme was pretreated with 150 μl inhibitor for 30 min at room temperature prior to the addition of 50 μl of 50 μM substrate solution.

In test [2] the target is T2, caspase-1 activation of membrane derived procaspase-3 (Mus musculus, UniProt P29452).
T2 construct: contains the p30 caspase-1 cDNA inserted into the Nde I/BamH I sites of the pET3a expression vector; FLAG; made in house; host or cells: caspase-1: E. coli BL21 (DE3) pLysS lysate; procaspase-3: endogenous in 697 cell heavy membranes
T2 sequence (P29452 119-296 limits assumed): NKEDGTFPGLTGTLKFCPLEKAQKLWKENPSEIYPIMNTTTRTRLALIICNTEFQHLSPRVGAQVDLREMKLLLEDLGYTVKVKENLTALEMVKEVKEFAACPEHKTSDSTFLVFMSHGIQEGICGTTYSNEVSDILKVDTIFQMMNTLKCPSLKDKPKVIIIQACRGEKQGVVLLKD
T2 sequence (P29452 315-402 limits assumed): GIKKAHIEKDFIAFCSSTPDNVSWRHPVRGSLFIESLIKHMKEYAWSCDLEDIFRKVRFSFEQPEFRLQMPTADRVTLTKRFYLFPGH
The test is described as follows: Caspase-1 mediated activation of membrane procaspase-3 in 697 heavy membranes. Type of test: biochemical, human.
Procedure: Heavy membrane samples were diluted to 1 mg/ml in hypotonic buffer or in 0.25 M sucrose, 10 mM MOPS, 2 mM EDTA, pH 7.4 (Mancini, et al., 1998) containing 5 mM DTT with or without 1% NP-40. […] After the activation period, the heavy membrane pellet was removed from the sample by centrifugation for 10 min at 14,000×g at 4° C. […] In some experiments, caspase-1 activity was rapidly quenched at specific time points by the addition of one-tenth volume 3 μM YVADaldehyde (Bachem Bioscience, King of Prussia, Pa.) prior to centrifugation. To examine the time course of spontaneous activation of caspase activity from membranes, 50 μi of heavy membrane slurry containing 50-100 μg total protein was mixed with 200 μl hypotonic buffer containing 25 μM DEVD-amc substrate and 6 mM DTT in 96 well Cytofluor plates and fluorescence was measured over time. At selected time points, aliquots were removed from some wells, centrifuged for 10 min at 14,000×g to remove the heavy membranes and the supernatant was added back into the 96 well plate to measure the soluble DEVD-amc cleavage activity. […]
In this experiment, heavy membrane fractions (containing 50 μg total protein) from 697-Bcl-2 and 697-neo cells were re-suspended and treated with murine caspase-1 for one hour at room temperature. Following centrifugation, the DEVD-amc cleavage activity of the resulting supernatant was measured.

In test [3] the target is MN9D HM (caspase-1 treated) derived caspase. The test is described as follows: Inhibition of DEVD-amc cleavage, caspase-1 activated MN9D heavy membranes. It counts as biochemical, mouse. How it is done:
(§2) Caspase activity was measured by mixing 50 μl of an enzyme-containing fraction and 200 μl of 25 μM DEVD-amc (Asp-Glu-Val-Asp-aminomethylcoumarin; SEQ ID NO:6) substrate in ICE buffer (20 mM HEPES, 1 mM EDTA, 0.1% CHAPS, 10% sucrose, 5 mM DTT, pH 7.5) in duplicate Cytoplate wells. Product formation was monitored by the increase in fluorescence (ex=360 nm, em=460 nm) over 1-2 hours at 30° C. using the CytoFluor 4000 plate reader (Perseptive Biosystems, Framingham, Mass.). For kinetic studies, the substrate concentration was varied in the range 1-200 μM. KM values were calculated from these measurements using the equation: […]
(§3) where ΔFL/Δt is the observed initial rate of fluorescence change at substrate concentration [S] and (ΔFL/Δt)MAX is the initial rate of fluorescence change at saturating substrate concentrations. […] Inhibitor IC50 values were determined using the equation: […]
(§4) ΔFL/Δt is the observed initial rate of fluorescence change at inhibitor concentration [I] and (ΔFL/Δt)o is the initial rate fluorescence change for the uninhibited enzyme. […]
(§5) To determine if the presence of membrane derived caspase activity is a general property of mammalian cells, the DEVD-amc cleavage activity in heavy membranes from two other cell sources was measured: mouse E 15 primary brain cortical cells and the mouse dopaminergic MN9D cell line (Choi et al., […] 89:8943-8947, 1992). […]

The subject of test [4] is cortical cell HM (caspase-1 treated) derived caspase. The test is described as follows: Inhibition of DEVD-amc cleavage, caspase-1 activated E15 brain cortical cell heavy membranes. It counts as biochemical, mouse. How it is done: as §2, §3, §4, §5
The target of test [5] is T3, recombinant human caspase-3 (r-caspase-3 (His)6) (Homo sapiens, UniProt P42574).
T3 construct: The large subunit of purified bacterially expressed caspase-3 migrates as a 17-kDa band; purified fully-processed recombinant human caspase-3; His6 (C); made in house; host or cells: E. coli BL21 (DE3), pET21b; Ni2+ chelating column
T3 sequence (P42574 29-175 limits assumed): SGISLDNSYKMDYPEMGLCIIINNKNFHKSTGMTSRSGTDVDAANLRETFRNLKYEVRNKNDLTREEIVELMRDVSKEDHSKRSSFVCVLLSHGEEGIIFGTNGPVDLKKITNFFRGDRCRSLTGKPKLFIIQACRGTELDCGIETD
T3 sequence (P42574 176-277 limits assumed): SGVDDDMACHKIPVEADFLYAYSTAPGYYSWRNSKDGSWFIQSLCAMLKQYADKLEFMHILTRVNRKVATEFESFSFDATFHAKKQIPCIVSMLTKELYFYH
As to the kind of experiment: DEVD-amc cleavage by recombinant caspase-3. Type of test: biochemical. How it is done: as §1

The target in test [6] is T4, 697 Bcl-2 HM (caspase-1 treated) derived caspase (Homo sapiens, UniProt P42574).
T4 construct: the heavy membrane caspase is comprised of a large 19-kDa subunit and a smaller 12-kDa subunit; endogenous in cells; host or cells: 697-neo / 697-Bcl-2 human lymphoblastoid cells; supernatant assayed
T4 sequence (P42574 14-175): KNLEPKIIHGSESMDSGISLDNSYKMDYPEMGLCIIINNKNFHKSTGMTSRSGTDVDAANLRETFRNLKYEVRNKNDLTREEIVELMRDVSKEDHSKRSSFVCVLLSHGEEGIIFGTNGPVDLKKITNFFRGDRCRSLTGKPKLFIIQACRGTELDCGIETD
T4 sequence (P42574 176-277): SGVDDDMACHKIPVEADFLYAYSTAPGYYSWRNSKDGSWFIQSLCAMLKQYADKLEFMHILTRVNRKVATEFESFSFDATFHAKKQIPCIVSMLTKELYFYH
The test is described as follows: Inhibition of DEVD-amc cleavage, caspase-1 activated 697-Bcl-2 heavy membranes. It counts as biochemical. Here is the method: (§6) SEQ ID NO:6) substrate in ICE buffer (20 mM HEPES, 1 mM EDTA, 0.1% CHAPS, 10% sucrose, 5 mM DTT, pH 7.5) in duplicate Cytoplate wells. […] KM values were calculated from these measurements using the equation: where ΔFL/Δt is the observed initial rate of fluorescence change at substrate concentration [S] and (ΔFL/Δt)MAX is the initial rate of fluorescence change at saturating substrate concentrations. For inhibition studies, 50 μl of the enzyme was pretreated with 150 μl inhibitor for 30 min at room temperature prior to the addition of 50 μl of 50 μM substrate solution.

For test [7], the target named is T5, 697-neo HM (caspase-1 treated) derived caspase (Homo sapiens, UniProt P42574).
T5 construct: the heavy membrane caspase is comprised of a large 19-kDa subunit and a smaller 12-kDa subunit; endogenous in cells; host or cells: 697-neo / 697-Bcl-2 human lymphoblastoid cells; supernatant assayed
T5 sequence (P42574 14-175): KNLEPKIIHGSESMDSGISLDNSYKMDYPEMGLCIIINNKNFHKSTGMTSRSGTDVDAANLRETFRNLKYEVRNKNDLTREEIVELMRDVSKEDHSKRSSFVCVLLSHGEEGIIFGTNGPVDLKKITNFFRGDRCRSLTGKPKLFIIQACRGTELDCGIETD
T5 sequence (P42574 176-277): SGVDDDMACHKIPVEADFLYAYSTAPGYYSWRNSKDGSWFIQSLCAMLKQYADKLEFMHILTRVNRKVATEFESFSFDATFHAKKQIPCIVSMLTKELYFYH
As to the kind of experiment: Inhibition of DEVD-amc cleavage, caspase-1 activated 697-neo heavy membranes. It counts as biochemical. How it is done:
as §6

Another test deals with T6, caspase-1 (Mus musculus, UniProt P29452).
T6 construct: contains the p30 caspase-1 cDNA inserted into the Nde I/BamH I sites of the pET3a expression vector; FLAG; made in house; host or cells: E. coli BL21 (DE3) pLysS, pET3a; used as clarified bacterial lysate
T6 sequence (P29452 119-296 limits assumed): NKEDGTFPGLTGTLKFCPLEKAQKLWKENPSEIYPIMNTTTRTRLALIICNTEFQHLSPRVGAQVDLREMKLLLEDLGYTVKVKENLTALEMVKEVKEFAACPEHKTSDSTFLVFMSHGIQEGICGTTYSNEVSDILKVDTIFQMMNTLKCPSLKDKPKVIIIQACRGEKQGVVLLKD
T6 sequence (P29452 315-402 limits assumed): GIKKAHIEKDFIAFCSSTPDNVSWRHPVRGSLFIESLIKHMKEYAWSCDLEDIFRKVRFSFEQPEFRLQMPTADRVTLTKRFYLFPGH
As to the kind of experiment: Caspase-1 inhibition. To be noted: 300 nM. It counts as biochemical.

Like-named read-outs stand apart in the source and are kept apart here. A value given as a limit tells only on which side of the number the result lay.

For `CC(C)[C@H](NC(=O)[C@H](CCC(=O)O)NC(=O)OCc1ccccc1)C(=O)N[C@H](C=O)CC(=O)O` [ZEVDald], the IC50 (as a rule, the concentration that gives 50% inhibition) in test [1] (inhibition of DEVD-AMC cleavage, Table III, read-out: IC50 Membrane (purified membrane derived caspase-3)) was determined as 32 nM.
Turning to `CC(=O)N[C@@H](Cc1ccc(O)cc1)C(=O)N[C@H](C(=O)N[C@@H](C)C(=O)N[C@H](C=O)CC(=O)O)C(C)C` [YVAD-ald], the “Block of caspase-1 activation of membrane caspase” value in test [2] (200 nM) is given as “completely blocked”. In addition, the “Block of activation of DEVD-AMC hydrolytic activity and generation of 20-kDa large subunit” value in test [2] (caspase-1 pretreated with 300 nM) is “blocks”. Also, the IC50 was greater than 10 µM in test [3]; greater than 10 µM in test [4]; greater than 10 µM in test [5] (inhibition of DEVD-amc cleavage, read-out: IC50 r-caspase-3 (His)6); greater than 10 µM in test [5] (read-out: IC50 caspase-3); greater than 10 µM in test [6]; greater than 10 µM in test [7] (inhibition of DEVD-amc cleavage). Also, the “Inhibition of DEVD-AMC hydrolysis activity of caspase-1 activated membrane caspase” value in test [7] (300 nM) is on record as “not inhibited”. For the same molecule, the “Inhibition of caspase-1” value on caspase-1 was “completely inhibits”.

B1: Baculovirus p35: early p35 protein from Autographa californica nuclear polyhedrosis virus, recombinant (protein)
chain: MCVIFPVEIDVSQTIIRDCQVDKQTRELVYINKIMNTQLTKPVLMMFNISGPIRSVTRKNNNLRDRIKSKVDEQFDQLERDYSDQMDGFHDSIKYFKDEHYSVSCQNGSVLKSKFAKILKSHDYTDKKSIEAYEKYCLPKLVDERNDYYVAVCVLKPGFENGSNQVLSFEYNPIGNKVIVPFAHEINDTGLYEYDVVAYVDSVQFDGEQFEEFVQSLILPSSFKNSEKVLYYNEASKNKSMIYKALEFTTESSWGKSEKYNWKIFCNGFIYDKKSKVLYVKLHNVTSALNKNVILNTIK
B1: the concentration for half-maximal inhibition (IC50) in test [1] (read-out: IC50 heavy membrane caspase from 697 cells) amounted to 0.074 nM; in test [5] (inhibition of DEVD-AMC cleavage, Table III, read-out: IC50 Recombinant (caspase-3)), 4.1e-05 µM.
